{
  "source": "paper PMC12211128",
  "about": "“Safety, tolerability, pharmacokinetic and pharmacodynamic effects of the muscarinic M1 positive allosteric modulator VU0467319 for Alzheimer’s disease: a single ascending-dose study in healthy participants” (Alzheimer's Research & Therapy, 2025)",
  "test": "Plasma pharmacokinetics, single ascending dose and food effect studies",
  "type": "in vivo, human",
  "conditions": "for %AUCext / AUC0 − last / AUC0−∞ / CL/F / Cmax / Vz/F / t½: mean (SD); for Tmax: median (min, max)",
  "from_the_text": "Participants were screened up to 40 days prior to admission to the Vanderbilt Clinical Research Center (CRC). At admission, participants had baseline vital signs, clinical laboratory parameters and ECG were collected. The participants stayed overnight at the CRC, and in the morning performed the pre-dose cognitive and electrophysiological (ERP) batteries. Following completion of these batteries, pre-dose blood and urine for pharmacokinetic (PK) analysis was collected, as well as a second set of baseline vital signs. Participants then received an oral dose of VU319 or placebo with water. VU319 doses were assessed in five dose escalating cohorts of eight participants (60, 120, 240, 400 & 600 mg). The initial dose of 60 mg was chosen by allometric scaling of the highest no observed adverse effect level (NOAEL) in animal species and reduced by a safety factor of 10. The increase in doses following the initial dose of 60 mg followed a modified Fibonacci sequence. In each cohort, six participants received oral VU319 while two participants received placebo. The randomization of participants to either placebo or active VU319 was done using a randomly permuted block procedure at a ratio of 1:3 for each of five dosages of VU319. Participants were required to remain in the CRC for 36 h after dosing for the first four cohorts, and for 48 h for the 600 mg cohort and the food effect study due to the change in PK sampling (discussed more below). Cognitive and ERP batteries were performed five hours post-dose. The decision to escalate to the next dose cohort was determined by review and approval from an independent safety monitoring committee, based on the PK data, as well as the safety and tolerability data from the preceding dose level.\nThe food effect study was completed after the first 5 ascending cohorts, participants were dosed once in a fasted state and once following a controlled high fat breakfast. Based on the PK results of the single ascending dose cohorts (see results), the 120 mg dosage group was chosen for the food effect study. This dose was chosen as it was a low-middle dosage in which the pharmacokinetic parameters could move up or down depending on the addition of food. The food effect study consisted of twelve participants, ten of whom received oral 120 mg VU319, while the other two received placebo. The participants received VU319 or placebo on two separate visits to the Vanderbilt CRC. These visits were separated by at least 14 days to allow for washout. On one visit, participants were dosed in a fasted state, while on the other visit, participants were dosed 30 min after eating a controlled high-fat breakfast. The order of the fed/fast conditions were randomized and balanced so that half the cohort were dosed fasting first, and the other half fed first. Post-dose procedures were shifted 30 min to allow for breakfast, but otherwise all study procedures remained the same as in the ascending dose cohorts.\nBlood samples (4 mL) were obtained by direct venipuncture into K2 EDTA tubes at 0.5 h pre-dose and at 0.5, 1, 1.5, 2, 2.5, 3, 5, 7, 9, 12, 24, 26, 28, 36, 48 and 144-hours post-dose. […] Urine samples for PK quantification were collected at pre-dose and 2, 5, 12, 24, 36 and 144-hours post-dose.\nDetermination of plasma and urine concentrations of VU319 and metabolite VU0481424 (VU424) was carried out in compliance with Good Laboratory Practice using a validated method at Illinois Institute of Technology Research Institute (IITRI) laboratories. Pharmacokinetic endpoints included the following VU319 parameters for plasma: area under the plasma concentration-time curve (AUC0 − 48); area under the plasma concentration-time curve extrapolated to infinity (AUC0−∞); percentage of the extrapolated area under the plasma concentration-time curve (%AUCextrap); maximum observed plasma concentration (Cmax); time (in hours) at which Cmax occurred (Tmax); clearance (Cl/F); elimination half-life (t1/2) and volume of distribution (Vd/F). […]",
  "key": {"[1]": {"conditions": "VU319 120 mg oral, fasted, food effect study"}, "[2]": {"conditions": "VU319 120 mg oral, fed, food effect study"}},
  "data": [
    {"smiles": "Cn1cc2c(-c3cc(F)c(CN4Cc5ncccc5C4=O)c(F)c3)cccc2n1", "note": "[VU319]", "values": [
      {"measurement": "inter-participant variability (CV%) of Cmax, AUC0last, AUC0−∞", "setting": "120 mg, fasted and fed conditions", "result": "24–38%"},
      {"measurement": "AUC under fed vs fasted conditions", "setting": "120 mg, food effect study", "result": "insignificantly higher"},
      {"measurement": "Cmax under fed vs fasted conditions, higher by", "setting": "120 mg, food effect study", "result": 51, "unit": "%"},
      {"measurement": "dose proportionality of systemic exposure (Cmax, AUC0 − last, AUC0−∞)", "setting": "60 to 600 mg, linear power model", "result": "less than dose-proportional"},
      {"measurement": "%AUCext", "setting": "VU319 60 mg oral, SAD", "result": "4.81 (6.18) %"},
      {"measurement": "AUC0 − last", "setting": "VU319 60 mg oral, SAD", "result": "36.8 (10.9) µg•h/mL"},
      {"measurement": "AUC0−∞", "setting": "VU319 60 mg oral, SAD", "result": "39.2 (13.3) µg•h/mL"},
      {"measurement": "CL/F", "setting": "VU319 60 mg oral, SAD", "result": "1.73 (0.71) L/h"},
      {"measurement": "Cmax", "setting": "VU319 60 mg oral, SAD", "result": "0.725 (0.209) µg/mL"},
      {"measurement": "Vz/F", "setting": "VU319 60 mg oral, SAD", "result": "71.8 (20.2) L"},
      {"measurement": "t½", "setting": "VU319 60 mg oral, SAD", "result": "31.5 (13.3) h"},
      {"measurement": "Tmax", "setting": "VU319 60 mg oral, SAD", "result": "7.00 (2.50, 9.00) h"},
      {"measurement": "%AUCext", "setting": "VU319 120 mg oral, SAD", "result": "6.30 (3.55) %"},
      {"measurement": "AUC0 − last", "setting": "VU319 120 mg oral, SAD", "result": "60.1 (13.7) µg•h/mL"},
      {"measurement": "AUC0−∞", "setting": "VU319 120 mg oral, SAD", "result": "59.0 (9.07) µg•h/mL"},
      {"measurement": "CL/F", "setting": "VU319 120 mg oral, SAD", "result": "2.07 (0.28) L/h"},
      {"measurement": "Cmax", "setting": "VU319 120 mg oral, SAD", "result": "0.884 (0.312) µg/mL"},
      {"measurement": "Vz/F", "setting": "VU319 120 mg oral, SAD", "result": "107 (6.4) L"},
      {"measurement": "t½", "setting": "VU319 120 mg oral, SAD", "result": "55.4 (46.8) h"},
      {"measurement": "Tmax", "setting": "VU319 120 mg oral, SAD", "result": "5.00 (2.00, 24.0) h"},
      {"measurement": "%AUCext", "setting": "[1]", "result": "5.86 (4.51) %"},
      {"measurement": "AUC0 − last", "setting": "[1]", "result": "56.8 (18.0) µg•h/mL"},
      {"measurement": "AUC0−∞", "setting": "[1]", "result": "60.7 (23.3) µg•h/mL"},
      {"measurement": "CL/F", "setting": "[1]", "result": "2.35 (1.15) L/h"},
      {"measurement": "Cmax", "setting": "[1]", "result": "0.985 (0.38) µg/mL"},
      {"measurement": "Vz/F", "setting": "[1]", "result": "94.4 (27.8) L"},
      {"measurement": "t½", "setting": "[1]", "result": "37.4 (15.9) h"},
      {"measurement": "Tmax", "setting": "[1]", "result": "5.11 (2.50, 48.1) h"},
      {"measurement": "%AUCext", "setting": "[2]", "result": "5.79 (4.31) %"},
      {"measurement": "AUC0 − last", "setting": "[2]", "result": "62.5 (15.6) µg•h/mL"},
      {"measurement": "AUC0−∞", "setting": "[2]", "result": "66.6 (19.3) µg•h/mL"},
      {"measurement": "CL/F", "setting": "[2]", "result": "2.01 (0.85) L/h"},
      {"measurement": "Cmax", "setting": "[2]", "result": "1.42 (0.344) µg/mL"},
      {"measurement": "Vz/F", "setting": "[2]", "result": "85.3 (16.4) L"},
      {"measurement": "t½", "setting": "[2]", "result": "36.9 (17.0) h"},
      {"measurement": "Tmax", "setting": "[2]", "result": "5.02 (2.50, 8.97) h"},
      {"measurement": "%AUCext", "setting": "VU319 240 mg oral, SAD", "result": "5.48 (6.31) %"},
      {"measurement": "AUC0 − last", "setting": "VU319 240 mg oral, SAD", "result": "63.8 (18.4) µg•h/mL"},
      {"measurement": "AUC0−∞", "setting": "VU319 240 mg oral, SAD", "result": "78.3 (15.2) µg•h/mL"},
      {"measurement": "CL/F", "setting": "VU319 240 mg oral, SAD", "result": "3.15 (0.58) L/h"},
      {"measurement": "Cmax", "setting": "VU319 240 mg oral, SAD", "result": "1.18 (0.425) µg/mL"},
      {"measurement": "Vz/F", "setting": "VU319 240 mg oral, SAD", "result": "143 (52.7) L"},
      {"measurement": "t½", "setting": "VU319 240 mg oral, SAD", "result": "35.0 (14.5) h"},
      {"measurement": "Tmax", "setting": "VU319 240 mg oral, SAD", "result": "9.50 (3.00, 24.0) h"},
      {"measurement": "%AUCext", "setting": "VU319 400 mg oral, SAD", "result": "11.2 (4.73) %"},
      {"measurement": "AUC0 − last", "setting": "VU319 400 mg oral, SAD", "result": "132 (47.4) µg•h/mL"},
      {"measurement": "AUC0−∞", "setting": "VU319 400 mg oral, SAD", "result": "124 (32.0) µg•h/mL"},
      {"measurement": "CL/F", "setting": "VU319 400 mg oral, SAD", "result": "3.42 (0.96) L/h"},
      {"measurement": "Cmax", "setting": "VU319 400 mg oral, SAD", "result": "1.72 (0.447) µg/mL"},
      {"measurement": "Vz/F", "setting": "VU319 400 mg oral, SAD", "result": "219 (21.6) L"},
      {"measurement": "t½", "setting": "VU319 400 mg oral, SAD", "result": "46.2 (9.54) h"},
      {"measurement": "Tmax", "setting": "VU319 400 mg oral, SAD", "result": "5.98 (2.02, 48.2) h"},
      {"measurement": "%AUCext", "setting": "VU319 600 mg oral, SAD", "result": "5.73 (2.41) %"},
      {"measurement": "AUC0 − last", "setting": "VU319 600 mg oral, SAD", "result": "207 (47.1) µg•h/mL"},
      {"measurement": "AUC0−∞", "setting": "VU319 600 mg oral, SAD", "result": "221 (54.6) µg•h/mL"},
      {"measurement": "CL/F", "setting": "VU319 600 mg oral, SAD", "result": "2.87 (0.77) L/h"},
      {"measurement": "Cmax", "setting": "VU319 600 mg oral, SAD", "result": "2.81 (0.64) µg/mL"},
      {"measurement": "Vz/F", "setting": "VU319 600 mg oral, SAD", "result": "123 (23.8) L"},
      {"measurement": "t½", "setting": "VU319 600 mg oral, SAD", "result": "30.4 (4.37) h"},
      {"measurement": "Tmax", "setting": "VU319 600 mg oral, SAD", "result": "5.01 (2.00, 48.0) h"},
      {"measurement": "plasma half-life (initial findings)", "setting": "first SAD cohorts, reason for changed sampling times", "result": "> 30", "unit": "h"},
      {"measurement": "dose proportionality of systemic exposure", "setting": "higher doses, 240 to 600 mg", "result": "approximately proportional to dose"}
    ]}
  ]
}
